In patent publication US20210087172A1, “FACTOR XIIa INHIBITORS” (UNIVESITY OF LEEDS, priority 2018, published 2021):
pKi: −log10 of the molar value.

Tests used:
Assay type in all cases: biochemical
[1] = molecular target: FXa (human) (Homo sapiens, UniProt P00742); test: Determination of selectivity: FXa chromogenic assay (S2765 substrate); conditions: fold selectivity for FXIIa over FXa; FXa 5 nM, S2765 350 μM
Description: (§1) The activities of the compounds of the invention have been determined in vitro using the following assays protocols for the screening of activity of FXIa and other proteases. Each of these assays were performed in a purified system employing the use of chromogenic assays in microplate plate wells. Chromogenic peptide substrates mimicking natural protein substrates are attached via an amide bond to a chromogenic group. Paranitroaniline (pNA) is released from the peptide following catalyses by the proteolytic enzyme; the absorbance increases and can be monitored at 405 nm.
(§2) All compounds were dissolved in 100% (v/v) DMSO to a stock concentration of 10 mM, the highest concentration of compound used in each assay is 500 μM. The final concentrations of DMSO were 5% (v/v) in 50 mM Tris 137 mM NaCl pH 7.4. Where no test compound was added a final concentration of 5% DMSO was employed.
(§3) To determine selectivity of test compounds, these test compounds were assayed for inhibitory activity against other serine proteases including FXa and thrombin. Essentially compounds at increasing concentrations were incubated with each enzyme: FXa (5 nM) and thrombin (5 nM), for 10 mins at 37° C. followed the appropriate chromogenic substrate, S2765 (350 μM), and GPR (250 μM) respectively in 50 mM Tris, 137 mM NaCl, pH 7.4. Chromogenic substrates S2765 was from Chromogenix, and GPR from Bachem. Kinetic readings at 405 nm were monitored every 12 secs for a total duration of 3 hours at 37° C. Gradients of initial rates were determined and employed to calculate IC50 values. Values of IC50 were converted to Ki values based on the formula:
(§4) Ki=IC50/(1+[Substrate]/Km)
(§5) Where [Substrate] denotes the concentration of substrate used in the assay and Km is the determined value of each enzyme with its own substrate.
The fold selectivity for FXIIa over FXa for the compounds of the invention has been categorised based on the fold selectivity values, the categories being “o”, “oo” and “ooo”. The category “o” refers to fold selectivity values less than 10. The category “oo” refers to a fold selectivity value of 10 to 100. The category “ooo” refers to fold selectivity values greater than 100.

[2] = molecular target: T1, Thrombin (human) (Homo sapiens, UniProt P00734); test: Determination of selectivity: thrombin chromogenic assay (GPR substrate); conditions: fold selectivity for FXIIa over thrombin; thrombin 5 nM, GPR 250 μM
T1 construct: FXa (5 nM) and thrombin (5 nM)
Description: as §1, §2, §3, §4, §5
The fold selectivity for FXIIa over thrombin for the compounds of the invention has been categorised based on the fold selectivity values, the categories being “+”, “++” and “+++”. The category “+” refers to fold selectivity values less than 10. The category “++” refers to a fold selectivity value of 10 to 100. The category “+++” refers to fold selectivity values greater than 100.

[3] = molecular target: T2, FXIIa alpha (Human) (Homo sapiens, UniProt P00748); test: Determination of Factor XIIa inhibition, chromogenic substrate S-2302; conditions: 10 nM FXIIa, 450 μM S-2302, 37° C., pH 7.4; Ki converted from IC50
T2 construct: FXIIa alpha
T2 sequence (P00748 373-615 limits assumed): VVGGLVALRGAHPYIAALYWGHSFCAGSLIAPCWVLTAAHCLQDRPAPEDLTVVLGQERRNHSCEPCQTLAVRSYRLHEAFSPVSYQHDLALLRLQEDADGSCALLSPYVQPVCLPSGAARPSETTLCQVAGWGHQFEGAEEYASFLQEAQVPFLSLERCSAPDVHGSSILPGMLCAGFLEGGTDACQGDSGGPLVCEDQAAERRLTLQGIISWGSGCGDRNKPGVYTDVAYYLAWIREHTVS
T2 sequence (P00748 20-372 partner limits assumed): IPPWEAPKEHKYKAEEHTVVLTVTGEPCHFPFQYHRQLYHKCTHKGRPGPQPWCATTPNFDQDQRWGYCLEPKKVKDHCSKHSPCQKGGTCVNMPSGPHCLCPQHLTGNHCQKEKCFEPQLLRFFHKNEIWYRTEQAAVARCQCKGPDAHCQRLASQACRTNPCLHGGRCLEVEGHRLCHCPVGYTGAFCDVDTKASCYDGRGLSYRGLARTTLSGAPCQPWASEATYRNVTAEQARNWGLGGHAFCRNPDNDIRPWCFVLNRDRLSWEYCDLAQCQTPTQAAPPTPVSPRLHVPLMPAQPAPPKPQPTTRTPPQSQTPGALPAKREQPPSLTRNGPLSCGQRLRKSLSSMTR
Description: as §1, §2
Factor XIa activity was measured using a chromogenic substrate S-2302 (Chromogenix). Various concentrations of compound were incubated with 10 nM of FXIIa and incubated at 37° C. for 10 minutes in 50 mM Tris, 137 mM NaCl, pH 7.4, prior to the addition of a final concentration of 450 μM S-2302 chromogenic substrate. Kinetic readings at 405 nm were monitored every 12 secs for a total duration of 3 hours at 37° C. Gradients of initial rates were determined and employed to calculate IC50 values. Values of IC50 were converted to Ki values based on the formula:
as §4
The activity of the compounds of the invention has been categorised based on the Ki values, the categories being “*”, “**” and “***”. […] The category refers to compounds with a Ki value of 0.2 μM to 2 μM.

Sequence of FXa (human) (P00742 235-488 limits assumed): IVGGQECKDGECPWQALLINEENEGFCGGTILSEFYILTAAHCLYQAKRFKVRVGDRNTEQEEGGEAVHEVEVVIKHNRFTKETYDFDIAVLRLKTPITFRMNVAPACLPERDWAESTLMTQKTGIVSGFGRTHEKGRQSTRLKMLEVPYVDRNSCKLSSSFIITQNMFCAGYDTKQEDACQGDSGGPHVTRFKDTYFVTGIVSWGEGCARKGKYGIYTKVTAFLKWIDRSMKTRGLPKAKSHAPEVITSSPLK
Sequence of FXa (human) (P00742 41-179 partner limits assumed): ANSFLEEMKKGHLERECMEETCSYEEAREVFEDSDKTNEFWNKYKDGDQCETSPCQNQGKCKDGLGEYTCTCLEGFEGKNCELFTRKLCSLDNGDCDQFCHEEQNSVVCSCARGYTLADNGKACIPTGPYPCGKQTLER

| SMILES | pKi [3] | FXa (human)/FXIIa alpha (human) fold selectivity [1] | Thrombin (human)/FXIIa alpha (human) fold selectivity [2] |
| --- | --- | --- | --- |
| COc1cc(CNC(=O)[C@@H]2CN(C(=O)OCc3ccccc3)CCN2C(=O)[C@H](N)CCc2ccccc2)ccc1CN [Compound M00834] | > 6.70 | ooo (fold selectivity values greater than 100) | +++ (fold selectivity values greater than 100) |
| Cc1ccc(OC(=O)N2CCN(C(=O)[C@H](N)CCc3ccccc3)[C@H](C(=O)NCc3ccc4c(c3)nnn4C)C2)cc1 [Compound M00934] | < 5.70 | oo (a fold selectivity value of 10 to 100) | ++ (a fold selectivity value of 10 to 100) |
| CS(=O)(=O)N1CCN(C(=O)[C@H](N)CCc2ccccc2)[C@H](C(=O)NCc2ccc(CN)cc2)C1 [Compound M00838, (2S)-1-[(2R)-2-amino-4-phenylbutanoyl]-N-{[4-(aminomethyl)phenyl]methyl}-4-methanesulfonylpiperazine-2-carboxamide] | < 5.70 | o (fold selectivity values less than 10) | + (fold selectivity values less than 10) |
| N=C(N)c1ccc(CNC(=O)C2CCCCN2C(=O)C(CCc2ccccc2)NS(=O)(=O)Cc2ccccc2)cc1 (stereo not drawn) [Compound M00556] | 5.70 to 6.70 | o (fold selectivity values less than 10) | + (fold selectivity values less than 10) |
| Nc1cc(CNC(=O)[C@@H]2CN(C(=O)OCc3ccccc3)CCN2C(=O)[C@H](N)CCc2ccccc2)ccn1 [Compound M00832] | < 5.70 | oo (a fold selectivity value of 10 to 100) | ++ (a fold selectivity value of 10 to 100) |
| COc1ccc(OC(=O)N2CCN(C(=O)[C@H](N)CCc3ccccc3)[C@H](C(=O)NCc3ccc4c(c3)nnn4C)C2)cc1 [Compound M00932] | < 5.70 | oo (a fold selectivity value of 10 to 100) | ++ (a fold selectivity value of 10 to 100) |

Further lines, with some results ahead:

| pKi [3] | SMILES | FXa (human)/FXIIa alpha (human) fold selectivity [1] | Thrombin (human)/FXIIa alpha (human) fold selectivity [2] |
| --- | --- | --- | --- |
| 5.70 to 6.70 | N[C@H](CCC(=O)N1CCCC1)C(=O)N1CCN(C(=O)OCc2ccccc2)C[C@H]1C(=O)NCc1cc2ccncc2[nH]1 [Compound M00951] | oo (a fold selectivity value of 10 to 100) | ++ (a fold selectivity value of 10 to 100) |
| 5.70 to 6.70 | Nc1cc(CNC(=O)[C@@H]2CN(C(=O)OCc3ccccc3)CCN2C(=O)[C@H](N)CCC(=O)N2CCCC2)ccn1 [Compound M05209] | oo (a fold selectivity value of 10 to 100) | +++ (fold selectivity values greater than 100) |
| < 5.70 | Cn1nnc2cc(CNC(=O)[C@@H]3CN(C(=O)OCc4ccccc4)CCN3C(=O)[C@H](N)CCc3ccccc3)ccc21 [Compound M05098, (S)-4-((R)-2-Amino-4-phenyl-butyryl)-3-[(1-methyl-1H-benzotriazol-5-ylmethyl)-carbamoyl]-piperazine-1-carboxylic acid benzyl ester] | oo (a fold selectivity value of 10 to 100) | ++ (a fold selectivity value of 10 to 100) |
| < 5.70 | Nc1noc2cc(CNC(=O)[C@@H]3CN(C(=O)OCc4ccccc4)CCN3C(=O)[C@H](N)CCc3ccccc3)ccc12 [Compound M05124] | oo (a fold selectivity value of 10 to 100) | + (fold selectivity values less than 10) |
| < 5.70 | Cn1nnc2cc(CNC(=O)[C@@H]3C[C@H](c4ccccc4)CCN3C(=O)[C@H](N)CCC(=O)N3CCCC3)ccc21 [Compound M05385] | oo (a fold selectivity value of 10 to 100) | ++ (a fold selectivity value of 10 to 100) |
| < 5.70 | Cn1nnc2cc(CNC(=O)[C@@H]3C[C@@H](c4ccccc4)CCN3C(=O)[C@H](N)CCC(=O)N3CCCC3)ccc21 [Compound M05375] | oo (a fold selectivity value of 10 to 100) | ++ (a fold selectivity value of 10 to 100) |
| < 5.70 | N[C@H](CCC(=O)N1CCCC1)C(=O)N1CCN(C(=O)OCc2ccccc2)C[C@H]1C(=O)NCc1ccc2[nH]cnc2c1 [Compound M05213] | oo (a fold selectivity value of 10 to 100) | ++ (a fold selectivity value of 10 to 100) |
| < 5.70 | NCc1ccc(CNC(=O)C2CN(C(=O)Cc3ccccc3)CCN2C(=O)C(N)CCc2ccccc2)cc1 (stereo not drawn) [Compound M00843] | oo (a fold selectivity value of 10 to 100) | +++ (fold selectivity values greater than 100) |
| < 5.70 | NCc1ccc(CNC(=O)[C@@H]2CN(C(=O)OCc3ccccc3)CCN2C(=O)[C@H](N)CCc2ccccc2)cc1 [Compound M05086] | oo (a fold selectivity value of 10 to 100) | ++ (a fold selectivity value of 10 to 100) |
